In the NIST ThermoML archive (doi:10.1016/j.fluid.2015.03.038):
Where “and” joins values, the source holds several entries; their conditions need not be identical. Equal entries are not always repeated.

Settings: Liquid

OCC(O)CO [glycerol]
Settings	vapor or sublimation pressure
303.59 K, static (had to override TRC unc)	4.15e-05 kPa
303.61 K, static (had to override TRC unc)	4.19e-05 kPa
304.56 K, static (had to override TRC unc)	4.68e-05 kPa
306.03 K, static (had to override TRC unc)	5.56e-05 kPa
308.43 K, static (had to override TRC unc)	7.28e-05 kPa
310.89 K, static (had to override TRC unc)	9.63e-05 kPa
313.29 K, static (had to override TRC unc)	0.000125 kPa
315.71 K, static (had to override TRC unc)	0.0001634 kPa
318.12 K, static (had to override TRC unc)	0.0002107 kPa
320.57 K, static (had to override TRC unc)	0.0002701 kPa
322.95 K, static (had to override TRC unc)	0.0003472 kPa
325.42 K, static (had to override TRC unc)	0.0004428 kPa
327.82 K, static (had to override TRC unc)	0.0005644 kPa
330.3 K, static (had to override TRC unc)	0.0007165 kPa
332.72 K, static (had to override TRC unc)	0.0009037 kPa
335.14 K, static (had to override TRC unc)	0.001132 kPa
338.2 K, transpiration (had to override TRC unc)	0.00151 kPa
338.25 K, static (had to override TRC unc)	0.001502 kPa
340.68 K, static (had to override TRC unc)	0.001872 kPa
341.7 K, transpiration (had to override TRC unc)	0.0021 kPa
343.08 K, static (had to override TRC unc)	0.00232 kPa
345.51 K, static (had to override TRC unc)	0.002876 kPa
347.7 K, transpiration (had to override TRC unc)	0.00355 kPa
347.91 K, static (had to override TRC unc)	0.003529 kPa
350.34 K, static (had to override TRC unc)	0.00436 kPa
351.5 K, transpiration (had to override TRC unc)	0.00503 kPa
352.57 K, static (had to override TRC unc)	0.00526 kPa
352.58 K, static (had to override TRC unc)	0.00527 kPa
352.6 K, static (had to override TRC unc)	0.00528 kPa
352.73 K, static (had to override TRC unc)	0.005318 kPa
354.5 K, transpiration (had to override TRC unc)	0.00631 kPa
354.98 K, static (had to override TRC unc)	0.00639 kPa
354.99 K, static (had to override TRC unc)	0.00641 kPa
355.18 K, static (had to override TRC unc)	0.006488 kPa
357.39 K, static (had to override TRC unc)	0.00777 kPa
357.42 K, static (had to override TRC unc)	0.00782 kPa
357.5 K, transpiration (had to override TRC unc)	0.00831 kPa
357.57 K, static (had to override TRC unc)	0.007863 kPa
359.8 K, static (had to override TRC unc)	0.00938 kPa
359.82 K, static (had to override TRC unc)	0.00939 kPa
360.01 K, static (had to override TRC unc)	0.009523 kPa
360.1 K, transpiration (had to override TRC unc)	0.00989 kPa
362.42 K, static (had to override TRC unc)	0.01146 kPa
362.63 K, static (had to override TRC unc)	0.0117 kPa
362.66 K, static (had to override TRC unc)	0.01179 kPa
363.2 K, transpiration (had to override TRC unc)	0.01274 kPa
364.82 K, static (had to override TRC unc)	0.0138 kPa
365.07 K, static (had to override TRC unc)	0.0141 kPa
365.08 K, static (had to override TRC unc)	0.01409 kPa
365.9 K, transpiration (had to override TRC unc)	0.01529 kPa
367.45 K, static (had to override TRC unc)	0.01686 kPa
367.48 K, static (had to override TRC unc)	0.01696 kPa
369.89 K, static (had to override TRC unc)	0.0202 kPa
369.91 K, static (had to override TRC unc)	0.02016 kPa
370.3 K, transpiration (had to override TRC unc)	0.0208 kPa
372.27 K, static (had to override TRC unc)	0.024 kPa
372.29 K, static (had to override TRC unc)	0.02415 kPa
374.7 K, static (had to override TRC unc)	0.0286 kPa
374.73 K, static (had to override TRC unc)	0.0286 kPa
377.08 K, static (had to override TRC unc)	0.03379 kPa
377.11 K, static (had to override TRC unc)	0.03408 kPa
377.77 K, static (had to override TRC unc)	0.03569 kPa
380.17 K, static (had to override TRC unc)	0.04186 kPa
380.19 K, static (had to override TRC unc)	0.04192 kPa
382.55 K, static (had to override TRC unc)	0.04942 kPa
382.59 K, static (had to override TRC unc)	0.04972 kPa and 0.0496 kPa
384.99 K, static (had to override TRC unc)	0.0582 kPa
385.01 K, static (had to override TRC unc)	0.05821 kPa
387.37 K, static (had to override TRC unc)	0.06807 kPa
387.39 K, static (had to override TRC unc)	0.06861 kPa
389.8 K, static (had to override TRC unc)	0.07986 kPa
389.83 K, static (had to override TRC unc)	0.07998 kPa
392.18 K, static (had to override TRC unc)	0.09311 kPa
392.2 K, static (had to override TRC unc)	0.09367 kPa
394.61 K, static (had to override TRC unc)	0.1087 kPa
394.64 K, static (had to override TRC unc)	0.1087 kPa
397 K, static (had to override TRC unc)	0.1258 kPa
397.02 K, static (had to override TRC unc)	0.1266 kPa
399.42 K, static (had to override TRC unc)	0.1462 kPa
399.45 K, static (had to override TRC unc)	0.1464 kPa
401.81 K, static (had to override TRC unc)	0.1688 kPa and 0.1687 kPa
401.83 K, static (had to override TRC unc)	0.1694 kPa
404.23 K, static (had to override TRC unc)	0.1952 kPa
404.26 K, static (had to override TRC unc)	0.1952 kPa
406.62 K, static (had to override TRC unc)	0.2242 kPa and 0.224 kPa
406.64 K, static (had to override TRC unc)	0.2251 kPa
409.68 K, static (had to override TRC unc)	0.2687 kPa
409.69 K, static (had to override TRC unc)	0.269 kPa
412.08 K, static (had to override TRC unc)	0.308 kPa
412.11 K, static (had to override TRC unc)	0.3089 kPa
414.48 K, static (had to override TRC unc)	0.3526 kPa
414.49 K, static (had to override TRC unc)	0.3526 kPa
416.89 K, static (had to override TRC unc)	0.4023 kPa
416.92 K, static (had to override TRC unc)	0.4033 kPa
419.3 K, static (had to override TRC unc)	0.4585 kPa and 0.4583 kPa
421.7 K, static (had to override TRC unc)	0.521 kPa
421.73 K, static (had to override TRC unc)	0.5224 kPa
424.1 K, static (had to override TRC unc)	0.5919 kPa
424.11 K, static (had to override TRC unc)	0.5923 kPa
426.5 K, static (had to override TRC unc)	0.6698 kPa
426.53 K, static (had to override TRC unc)	0.6725 kPa
428.91 K, static (had to override TRC unc)	0.7586 kPa and 0.7584 kPa
431.31 K, static (had to override TRC unc)	0.8565 kPa
431.34 K, static (had to override TRC unc)	0.8583 kPa
433.72 K, static (had to override TRC unc)	0.9653 kPa
433.73 K, static (had to override TRC unc)	0.9671 kPa
436.11 K, static (had to override TRC unc)	1.086 kPa
436.13 K, static (had to override TRC unc)	1.087 kPa
